US20060223790A1, “Modulation of Microglial by Nicotinic Medications” (University of South Florida, priority 2004, published 2006)

Key:
p44/42 MAPK = assay type: cell-based, mouse
[1] = tested on: primary cultured microglial cells; assay type: cell-based, mouse
[2] = tested on: primary cultured microglial cells; assay type: cell-based, mouse; remark: listed apart in the source
APP transgenic mice = details: cited from earlier work; for Aβ deposition: APP transgenic mice
microglia = details: cited from earlier work

## α-bungarotoxin
p44/42 MAPK
  effect on galantamine/nicotine inhibition of phosphorylation of p44/42 MAPK: significantly attenuated
[1]
  effect on galantamine/nicotine inhibition of microglial NO release: significantly attenuates

## CN1CCCC1c1cccnc1 (stereo not shown) [nicotine]
[2]
  HIV-1 gp120/IFN-Υ-induced TNF-α production: slight reduction
APP transgenic mice; mouse, in vivo
  reduction in β-amyloid plaque: comparable
microglia
  LPS-induced TNF-α release: inhibit
  microglial activation induced by bacterial endotoxin (LPS): reduced
[1]
  HIV-1 gp120/IFN-Υ-induced NO release: slight reduction

## Oc1c(I)cc(Cl)c2cccnc12 [clioquinol]
APP transgenic mice
  Aβ deposition: reduced

## CC(C)Cc1ccc(C(C)C(=O)O)cc1 (stereo not shown) [ibuprofen]
APP transgenic mice
  Aβ deposition: reduced

## COc1cc(/C=C/C(=O)CC(=O)/C=C/c2ccc(O)c(OC)c2)ccc1O [curcumin]
APP transgenic mice
  Aβ deposition: reduced
